# Experimental data as given in the OligoGym collection.
# HELM strings list units from the 5' end as sugar, base in round brackets, then linkage (d deoxyribose, r ribose, m 2'-O-methyl, p phosphodiester). Strings are as the collection lists them; they lack the last nucleoside at the 3' end of the tested compound. [moe] = 2'-O-(2-methoxyethyl) (MOE); [sp] = phosphorothioate linkage; [m5C] = 5-methylcytosine
# Biological target: GFAP
# Assay: mouse, dose not given
# Details: ASO
row,Substance,3 h FOB score
1,RNA1{[moe](T)[sp].[moe]([m5C])p.[moe](T)p.[moe](G)p.[moe]([m5C])p.d([m5C])[sp].d(A)[sp].d(T)[sp].d(T)[sp].d(T)[sp].d(A)[sp].d(T)[sp].d([m5C])[sp].d(T)[sp].d(G)[sp].[moe](T)p.[moe](G)p.[moe]([m5C])[sp].[moe](T)}$$$$ (last 3' nucleoside missing),1 score 0-7
2,RNA1{[moe](A)[sp].[moe](G)p.[moe](T)p.[moe]([m5C])p.d(A)[sp].d(G)[sp].d([m5C])[sp].d([m5C])[sp].d(T)[sp].d(G)[sp].d(G)[sp].d(T)[sp].d(T)[sp].d(A)[sp].[moe](G)p.[moe]([m5C])p.[moe]([m5C])p.[moe](T)[sp].[moe](T)}$$$$ (last 3' nucleoside missing),3 score 0-7
3,RNA1{[moe](T)[sp].[moe]([m5C])p.[moe](T)p.[moe](G)p.[moe](T)[sp].d(G)[sp].d([m5C])[sp].d(T)[sp].d(T)[sp].d(T)[sp].d(A)[sp].d(G)[sp].d(T)[sp].d(G)[sp].d(A)[sp].[moe]([m5C])p.[moe]([m5C])p.[moe](T)[sp].[moe](G)}$$$$ (last 3' nucleoside missing),4 score 0-7
4,RNA1{[moe](G)[sp].[moe](A)p.[moe](G)p.[moe](A)p.[moe](T)[sp].d(A)[sp].d(T)[sp].d([m5C])[sp].d(T)[sp].d(T)[sp].d(G)[sp].d(T)[sp].d(G)[sp].[moe](A)p.[moe]([m5C])p.[moe]([m5C])[sp].[moe](T)}$$$$ (last 3' nucleoside missing),4 score 0-7
5,RNA1{[moe](A)[sp].[moe]([m5C])p.[moe]([m5C])p.[moe](T)p.[moe]([m5C])[sp].d([m5C])[sp].d([m5C])[sp].d(T)[sp].d(G)[sp].d(A)[sp].d([m5C])[sp].d([m5C])[sp].d(T)[sp].d(G)[sp].d(T)[sp].[moe]([m5C])p.[moe](T)p.[moe](A)[sp].[moe](T)}$$$$ (last 3' nucleoside missing),3 score 0-7
6,RNA1{[moe]([m5C])[sp].[moe](A)p.[moe](G)p.[moe]([m5C])p.[moe]([m5C])p.d(T)[sp].d(G)[sp].d(G)[sp].d(T)[sp].d(T)[sp].d(A)[sp].d(G)[sp].d([m5C])[sp].d([m5C])[sp].d(T)[sp].[moe](T)p.[moe](T)p.[moe]([m5C])[sp].[moe](T)}$$$$ (last 3' nucleoside missing),5 score 0-7
7,RNA1{[moe]([m5C])[sp].[moe](G)p.[moe](T)p.[moe]([m5C])p.d(A)[sp].d([m5C])[sp].d(A)[sp].d(T)[sp].d(T)[sp].d([m5C])[sp].d(A)[sp].d([m5C])[sp].d(T)[sp].d(A)[sp].[moe](A)p.[moe](T)p.[moe](A)p.[moe](T)[sp].[moe](T)}$$$$ (last 3' nucleoside missing),0 score 0-7
8,RNA1{[moe](T)[sp].[moe](T)p.[moe](T)p.[moe](A)p.[moe](T)[sp].d(T)[sp].d(T)[sp].d(T)[sp].d(T)[sp].d([m5C])[sp].d([m5C])[sp].d(T)[sp].d([m5C])[sp].[moe](A)p.[moe](G)p.[moe]([m5C])[sp].[moe](G)}$$$$ (last 3' nucleoside missing),1 score 0-7
9,RNA1{[moe](T)[sp].[moe](G)p.[moe](A)p.[moe]([m5C])p.[moe](T)p.d(A)[sp].d(T)[sp].d([m5C])[sp].d(T)[sp].d(A)[sp].d(G)[sp].d(G)[sp].d(A)[sp].d(T)[sp].d(T)[sp].[moe](T)p.[moe](G)p.[moe](G)[sp].[moe]([m5C])}$$$$ (last 3' nucleoside missing),3 score 0-7
10,RNA1{[moe](T)[sp].[moe](T)p.[moe](T)p.[moe](T)p.d(G)[sp].d(A)[sp].d(G)[sp].d(A)[sp].d(T)[sp].d(A)[sp].d(T)[sp].d([m5C])[sp].d(T)[sp].d(T)[sp].[moe](G)p.[moe](T)p.[moe](G)p.[moe](A)[sp].[moe]([m5C])}$$$$ (last 3' nucleoside missing),3 score 0-7
11,RNA1{[moe](T)[sp].[moe](T)p.[moe](T)p.[moe](G)p.[moe](G)p.d(T)[sp].d(G)[sp].d([m5C])[sp].d(T)[sp].d(T)[sp].d(T)[sp].d(T)[sp].d(G)[sp].d([m5C])[sp].d([m5C])[sp].[moe]([m5C])p.[moe]([m5C])p.[moe]([m5C])[sp].[moe](T)}$$$$ (last 3' nucleoside missing),2 score 0-7
12,RNA1{[moe]([m5C])[sp].[moe](T)p.[moe](T)p.[moe](T)p.[moe](A)p.[moe](T)p.d(T)[sp].d(T)[sp].d(T)[sp].d(T)[sp].d([m5C])[sp].d([m5C])[sp].d(T)[sp].d([m5C])[sp].d(A)[sp].d(G)[sp].[moe]([m5C])p.[moe](G)[sp].[moe](A)}$$$$ (last 3' nucleoside missing),1 score 0-7
13,RNA1{[moe](T)[sp].[moe](G)p.[moe](T)p.[moe](G)p.[moe]([m5C])[sp].d(T)[sp].d(T)[sp].d(T)[sp].d(A)[sp].d(G)[sp].d(T)[sp].d(G)[sp].d(A)[sp].d([m5C])[sp].d([m5C])[sp].[moe](T)p.[moe](G)p.[moe](T)[sp].[moe](G)}$$$$ (last 3' nucleoside missing),5 score 0-7
14,RNA1{[moe](T)[sp].[moe](T)p.[moe](G)p.[moe](T)p.[moe]([m5C])p.[moe](T)p.d(T)[sp].d(T)[sp].d(A)[sp].d(T)[sp].d(T)[sp].d(T)[sp].d(T)[sp].d(T)[sp].d([m5C])[sp].d([m5C])[sp].[moe](T)p.[moe]([m5C])[sp].[moe](A)}$$$$ (last 3' nucleoside missing),4 score 0-7
15,RNA1{[moe](A)[sp].[moe](G)p.[moe]([m5C])p.[moe](A)p.[moe](T)[sp].d(T)[sp].d(T)[sp].d(G)[sp].d(T)[sp].d([m5C])[sp].d(T)[sp].d(T)[sp].d(T)[sp].[moe](A)p.[moe](T)p.[moe](T)[sp].[moe](T)}$$$$ (last 3' nucleoside missing),3 score 0-7
16,RNA1{[moe](G)[sp].[moe](A)p.[moe](G)p.[moe](T)p.[moe](T)[sp].d(T)[sp].d([m5C])[sp].d(T)[sp].d(T)[sp].d(G)[sp].d(T)[sp].d(T)[sp].d(A)[sp].d(G)[sp].d(T)[sp].[moe](T)p.[moe](G)p.[moe](G)[sp].[moe](A)}$$$$ (last 3' nucleoside missing),7 score 0-7
17,RNA1{[moe](A)[sp].[moe](G)p.[moe]([m5C])p.[moe](A)p.[moe](T)[sp].d(T)[sp].d(T)[sp].d(G)[sp].d(T)[sp].d([m5C])[sp].d(T)[sp].d(T)[sp].d(T)[sp].d(A)[sp].d(T)[sp].[moe](T)p.[moe](T)p.[moe](T)[sp].[moe](T)}$$$$ (last 3' nucleoside missing),1 score 0-7
18,RNA1{[moe](A)[sp].[moe]([m5C])p.[moe](G)p.[moe](T)p.d([m5C])[sp].d(A)[sp].d([m5C])[sp].d(A)[sp].d(T)[sp].d(T)[sp].d([m5C])[sp].d(A)[sp].d([m5C])[sp].d(T)[sp].[moe](A)p.[moe](A)p.[moe](T)p.[moe](A)[sp].[moe](T)}$$$$ (last 3' nucleoside missing),0 score 0-7
19,RNA1{[moe](A)[sp].[moe](G)p.[moe](T)p.[moe]([m5C])p.[moe](A)p.[moe](G)p.d([m5C])[sp].d([m5C])[sp].d(T)[sp].d(G)[sp].d(G)[sp].d(T)[sp].d(T)[sp].d(A)[sp].d(G)[sp].d([m5C])[sp].[moe]([m5C])p.[moe](T)[sp].[moe](T)}$$$$ (last 3' nucleoside missing),3 score 0-7
